Key:
E. coli (NCTC 10418) = assay: Antimicrobial susceptibility testing (MIC) by the oCelloScope system; assay type: cell-based, Escherichia coli; details: CAMHBT broth, SESA growth curves
Procedure: (§1) E. coli (strain NCTC 10418) and S. aureus (Wood 46, NCTC 7121) were grown overnight in Sensititre® cation-adjusted Mueller-Hinton broth with TES (CAMHBT, TREK Diagnostic System). Bacterial cell suspensions were adjusted to 0.5 McFarland standard using a nephelometer. Subsequently, bacteria were diluted in CAMHBT according to the recommended final inoculum size for broth dilution (5×10^5 colony-forming units (CFU) ml^−1) (Wiegand, I., K. Hilpert, and R. E. Hancock, Agar and broth dilution methods to determine the minimal inhibitory concentration (MIC) of antimicrobial substances. Nat Protoc, 2008. 3(2): p. 163-75) and analyzed in Nunc Edge 96-well plates by the oCelloScope system.
(§2) The oCelloScope is a digital time-lapse microscopy technology that scans through a fluid sample generating series of images as described in 2013 by Fredborg et al. (Fredborg, M., et al., Real-time optical antimicrobial susceptibility testing. J Clin Microbiol, 2013. 51(7): p. 2047-53). As a result of the tilted imaging plane, the images recorded by the oCelloScope system constitute a parallelepipedum that forms the image stack. […] Growth kinetics was determined by image stack processing based on contrast based Segmentation and Extraction of Surface Area (SESA). […]
(§3) The effect of GA on bacterial growth was further evaluated using, an optical screening system (oCelloScope) (FIG. 6). […]

S. aureus (Wood 46) = assay: as above; assay type: cell-based, Staphylococcus aureus; details: CAMHBT broth, SESA growth curves
Procedure: as §1, §2, §3

[1] = system: S. aureus (Wood 46, NCTC 7121); assay: Antimicrobial susceptibility testing by flow cytometry-based assay (LIVE/DEAD BacLight, Syto9/PI); assay type: cell-based, Staphylococcus aureus; details: 30 minutes
Procedure: (§4) E. coli (strain NCTC 10418), P. aeruginosa (Strain PAO1) and S. aureus (Wood 46, NCTC 7121) cells were grown in 5 mL of Todd Hewitt Broth medium (THB; Sigma-Aldrich). Bacteria were cultivated at 37° C. for 15 h in a 15 mL tube to obtain late-log phase cultures. Bacterial cultures were pelleted at 3096 g for 10 minutes; the supernatant was discarded and bacteria were resuspended in phosphate-buffered saline (PBS) supplemented with 40 mg/ml human albumin to mimic chemical properties of blood. Bacteria were diluted to a standardized inoculum of 10^9 CFU/mL.
(§5) Bacteria were treated with GA, LL-37, Piperacillin/Tazobactam or Vancomycin in varying concentrations, i.e. 50, 25, 10 or 2 μg/ml, for 30 minutes. As a positive control, bacteria were treated with 7% isopropanol. Hereafter, bacteria were pelleted at 3096 g for 10 minutes; the supernatant was discarded and bacteria were resuspended in PBS. The antimicrobial effect was tested in a well-established and widely used flow cytometry-based assay (LIVE/DEAD® BacLight™ Bacterial Viability and Counting Kit (L34856), Molecular Probes/Invitrogen) according to manufacturer's manual.
(§6) For each bacteria, the flow cytometry-based assay was repeated four times.

[2] = system: S. aureus (Wood 46, NCTC 7121); assay: Colony-forming unit (CFU) counting; assay type: cell-based, Staphylococcus aureus; details: 30 minutes at 37° C. in PBS
Procedure: Late-log phase E. coli (strain NCTC 10418), P. aeruginosa (strain PAO1, ATCC 15692) and S. aureus (Wood 46, NCTC 7121) were resuspended in PBS and treated with different concentrations of glatiramer acetate (GA) or LL-37 (Innovagen, Lund, Sweden) and incubated on a shaker for 30 minutes at 37° C. Subsequently, a dilution series was performed to achieve a suitable amount of bacteria on the 5% blood agar plates. The 5% blood agar streak plates were cultured at 37° C. for 16 h and the resulting CFUs on the blood agar plates were imaged with a digital camera and counted with the aid of the software ImageJ 1.48v.

[3] = system: E. coli (strain NCTC 10418); assay: Antimicrobial susceptibility testing by flow cytometry-based assay (LIVE/DEAD BacLight, Syto9/PI); assay type: cell-based, Escherichia coli; details: 50 μg/ml, 30 minutes
Procedure: as §4, §5, §6
Flow cytometry was used to determine the antimicrobial activity of GA and LL-37. The flow cytometry diagrams show the results after treatment with 50 μg/ml LL-37, GA, piperacillin/tazobactam, 7% isopropanol and the untreated control. […] This gating strategy was primarily applied to avoid counting beads in the upper right corner of the FS-SS. […] Thus, a two-color fluorescence assay of bacterial viability, including PI and Syto9 staining, was applied. Syto9 stains all bacteria in a population, i.e. those with intact and those with damaged membranes. In contrast, propidium iodide (PI) penetrates only bacteria with damaged membranes, thereby making quantification of bacterial viability possible.

P. aeruginosa (PAO1) = assay: Antimicrobial activity in human serum and plasma (flow cytometry, PI/Syto9); assay type: cell-based, Pseudomonas aeruginosa; details: P. aeruginosa PAO1 ~10^8 cells/ml
From the text: It has been reported that the antimicrobial activity of antimicrobial peptides are inhibited by their binding to different factors in human plasma (Wang, Y., et al., Apolipoprotein A-I binds and inhibits the human antibacterial/cytotoxic peptide LL-37. J Biol Chem, 1998. 273(50): p. 33115-8), serum and is influenced by pH and ion composition (Johansson, J., et al., Conformation-dependent antibacterial activity of the naturally occurring human peptide LL-37. J Biol Chem, 1998. 273(6): p. 3718-24). To investigate the potential of GA for systemic application, bacterial isolates of P. aeruginosa (PAO1, ˜10^8 cells/ml) were incubated with increasing concentrations of GA and compared to LL-37. Bacterial survival and enumeration was evaluated by a flow cytometry bead standard and stained with propidium iodide and Syto9 following procedures as previously described above in the antimicrobial susceptibility testing by flow cytometry-based assay. […] All experiments were performed as four replicates.

Substance: Glatiramer acetate [GA]
- MIC (E. coli (NCTC 10418)): 31 mg/L
- MIC (S. aureus (Wood 46)): 500 mg/L
- percentage of bacteria testing positive for PI [1]: 12.1%
- antibacterial effect by CFU counting (in words) [2]: low antimicrobial impact
- percentage of bacteria testing positive for PI [3]: 17.7%
- percentage of bacteria testing positive for Syto-9 [3]: 78.3%
- antimicrobial activity in human plasma and serum (in words) (P. aeruginosa (PAO1)): retains antimicrobial activity

— patent US10166253B2, “Positively charged co-polymers for use as antimicrobial agents” (priority 2014, dated 2019)
